What was measured:
[1] = no reference given; cited from earlier work
[2] = system: UGT1A1; set-up: species or system patients; details: UGT1A1*28 and *60; population model ref 24
[3] = cited from earlier work

For `COc1cc([C@@H]2c3cc4c(cc3[C@@H](O[C@@H]3O[C@@H]5CO[C@@H](C)O[C@H]5[C@H](O)[C@H]3O)[C@H]3COC(=O)[C@H]23)OCO4)cc(OC)c1O` [etoposide], the “dose excreted unchanged renally” value [1] is given as 56%.

In the case of `O=C(/C=C/c1cccc(S(=O)(=O)Nc2ccccc2)c1)NO` [belinostat], the “model-predicted clearance versus number of variant copies of UGT1A1” value [2] is given as “decreasing trend with the number of variant copies of UGT1A1” and the half-life [3] is given as ~ 1 h.

From publication PMC6631369 (Anti-cancer drugs, 2018)
